Laboratory results published in ChEMBL document CHEMBL1138295, “Multiple N-methylation by a designed approach enhances receptor selectivity” (J Med Chem, 2007).
Square brackets hold non-standard residues; d marks the D form. Peptide text beside a SMILES is read from it.

Target: Integrin alpha-V/beta-3 (Homo sapiens, UniProt P05106+P06756)
Assay: Binding affinity to integrin alpha-v-beta-3 receptor by solid phase binding assay
Format: protein-complex assay

Sequence of Integrin alpha-V/beta-3 (P05106 27-788 limits assumed): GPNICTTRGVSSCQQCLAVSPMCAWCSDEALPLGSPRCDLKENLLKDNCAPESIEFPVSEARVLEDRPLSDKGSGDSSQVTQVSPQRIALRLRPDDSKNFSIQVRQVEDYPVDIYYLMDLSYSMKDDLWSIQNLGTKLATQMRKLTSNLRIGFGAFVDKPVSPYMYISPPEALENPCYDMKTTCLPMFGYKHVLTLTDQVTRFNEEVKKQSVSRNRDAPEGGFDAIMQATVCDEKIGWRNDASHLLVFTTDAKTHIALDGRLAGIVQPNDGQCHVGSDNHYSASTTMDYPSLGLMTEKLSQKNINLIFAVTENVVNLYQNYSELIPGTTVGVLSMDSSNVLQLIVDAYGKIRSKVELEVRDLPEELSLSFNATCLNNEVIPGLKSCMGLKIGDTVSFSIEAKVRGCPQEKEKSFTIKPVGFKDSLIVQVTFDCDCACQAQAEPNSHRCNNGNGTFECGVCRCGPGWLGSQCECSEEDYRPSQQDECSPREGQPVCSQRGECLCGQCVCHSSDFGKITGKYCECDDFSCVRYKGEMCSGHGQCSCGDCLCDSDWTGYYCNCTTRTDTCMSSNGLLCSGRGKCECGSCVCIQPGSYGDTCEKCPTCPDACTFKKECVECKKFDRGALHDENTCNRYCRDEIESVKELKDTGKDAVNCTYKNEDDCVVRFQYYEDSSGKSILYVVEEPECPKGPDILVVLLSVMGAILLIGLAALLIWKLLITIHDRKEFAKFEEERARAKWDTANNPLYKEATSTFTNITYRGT
Sequence of Integrin alpha-V/beta-3 (P06756 31-889 limits assumed): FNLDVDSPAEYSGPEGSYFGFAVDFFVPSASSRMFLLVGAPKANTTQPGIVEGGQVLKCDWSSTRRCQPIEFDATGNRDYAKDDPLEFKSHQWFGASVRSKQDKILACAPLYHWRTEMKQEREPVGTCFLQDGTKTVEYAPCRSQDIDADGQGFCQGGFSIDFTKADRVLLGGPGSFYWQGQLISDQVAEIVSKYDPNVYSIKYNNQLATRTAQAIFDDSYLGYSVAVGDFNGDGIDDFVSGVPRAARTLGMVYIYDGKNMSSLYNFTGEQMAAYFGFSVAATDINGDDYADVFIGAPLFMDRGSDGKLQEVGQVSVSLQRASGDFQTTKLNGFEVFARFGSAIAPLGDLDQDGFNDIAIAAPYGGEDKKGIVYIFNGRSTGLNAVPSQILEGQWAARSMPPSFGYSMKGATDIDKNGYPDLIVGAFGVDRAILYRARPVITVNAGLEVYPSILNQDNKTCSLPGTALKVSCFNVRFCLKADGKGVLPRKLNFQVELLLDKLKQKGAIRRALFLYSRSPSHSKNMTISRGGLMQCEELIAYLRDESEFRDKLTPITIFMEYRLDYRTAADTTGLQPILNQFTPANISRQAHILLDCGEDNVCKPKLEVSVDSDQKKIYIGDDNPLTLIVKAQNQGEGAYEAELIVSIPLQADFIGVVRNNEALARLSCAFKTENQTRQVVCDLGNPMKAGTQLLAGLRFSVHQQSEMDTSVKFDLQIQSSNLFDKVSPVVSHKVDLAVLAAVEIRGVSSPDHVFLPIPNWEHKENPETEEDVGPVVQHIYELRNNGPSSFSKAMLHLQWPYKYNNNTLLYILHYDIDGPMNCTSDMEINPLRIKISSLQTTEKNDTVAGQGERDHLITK
Sequence of Integrin alpha-V/beta-3 (P06756 891-1048 limits assumed): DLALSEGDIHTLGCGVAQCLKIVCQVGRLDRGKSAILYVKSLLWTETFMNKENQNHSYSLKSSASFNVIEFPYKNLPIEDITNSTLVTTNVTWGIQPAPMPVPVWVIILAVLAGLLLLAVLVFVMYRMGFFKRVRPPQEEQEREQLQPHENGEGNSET

| SMILES | IC50 [nM] |
| --- | --- |
| CC(C)C[C@H]1C(=O)NCC(=O)N(C)[C@@H](CCCN=C(N)N)C(=O)NCC(=O)N[C@@H](CC(=O)O)C(=O)N(C)[C@H](Cc2ccccc2)C(=O)N1C | 12200 |
| CC(C)C[C@@H]1NC(=O)[C@@H](Cc2ccccc2)N(C)C(=O)[C@H](CC(=O)O)NC(=O)CNC(=O)[C@H](CCCN=C(N)N)NC(=O)CNC1=O | 490 |
| CC(C)C[C@@H]1NC(=O)[C@@H](Cc2ccccc2)NC(=O)[C@H](CC(=O)O)NC(=O)CNC(=O)[C@H](CCCNC(=N)N)NC(=O)CNC1=O (cyclo(GRGD[dF]L)) | 100 |
| CC(C)C[C@H]1C(=O)NCC(=O)N[C@@H](CCCN=C(N)N)C(=O)NCC(=O)N[C@@H](CC(=O)O)C(=O)N[C@H](Cc2ccccc2)C(=O)N1C | 103 |
| CC(C)C[C@@H]1NC(=O)[C@@H](Cc2ccccc2)NC(=O)[C@H](CC(=O)O)NC(=O)CNC(=O)[C@H](CCCN=C(N)N)N(C)C(=O)CNC1=O | 770 |

Now from value to compound:

| IC50 [nM] | SMILES |
| --- | --- |
| 1200 | CC(C)C[C@H]1C(=O)NCC(=O)N[C@@H](CCCN=C(N)N)C(=O)NCC(=O)N[C@@H](CC(=O)O)C(=O)N(C)[C@H](Cc2ccccc2)C(=O)N1C |
| 1300 | CC(C)C[C@H]1C(=O)NCC(=O)N(C)[C@@H](CCCNC(=N)N)C(=O)NCC(=O)N[C@@H](CC(=O)O)C(=O)N[C@H](Cc2ccccc2)C(=O)N1C |
| 2730 | CC(C)C[C@@H]1NC(=O)[C@@H](Cc2ccccc2)N(C)C(=O)[C@H](CC(=O)O)NC(=O)CNC(=O)[C@H](CCCNC(=N)N)N(C)C(=O)CNC1=O |

Target: Integrin alpha-IIb/beta-3 (Homo sapiens, UniProt P05106+P08514)
Assay: Binding affinity to integrin alpha-2b-beta-3 receptor by solid phase binding assay
Format: protein-complex assay

Sequence of Integrin alpha-IIb/beta-3 (P05106 27-788 limits assumed): as the sequence (P05106 27-788 limits assumed) above
Sequence of Integrin alpha-IIb/beta-3 (P08514 32-887 limits assumed): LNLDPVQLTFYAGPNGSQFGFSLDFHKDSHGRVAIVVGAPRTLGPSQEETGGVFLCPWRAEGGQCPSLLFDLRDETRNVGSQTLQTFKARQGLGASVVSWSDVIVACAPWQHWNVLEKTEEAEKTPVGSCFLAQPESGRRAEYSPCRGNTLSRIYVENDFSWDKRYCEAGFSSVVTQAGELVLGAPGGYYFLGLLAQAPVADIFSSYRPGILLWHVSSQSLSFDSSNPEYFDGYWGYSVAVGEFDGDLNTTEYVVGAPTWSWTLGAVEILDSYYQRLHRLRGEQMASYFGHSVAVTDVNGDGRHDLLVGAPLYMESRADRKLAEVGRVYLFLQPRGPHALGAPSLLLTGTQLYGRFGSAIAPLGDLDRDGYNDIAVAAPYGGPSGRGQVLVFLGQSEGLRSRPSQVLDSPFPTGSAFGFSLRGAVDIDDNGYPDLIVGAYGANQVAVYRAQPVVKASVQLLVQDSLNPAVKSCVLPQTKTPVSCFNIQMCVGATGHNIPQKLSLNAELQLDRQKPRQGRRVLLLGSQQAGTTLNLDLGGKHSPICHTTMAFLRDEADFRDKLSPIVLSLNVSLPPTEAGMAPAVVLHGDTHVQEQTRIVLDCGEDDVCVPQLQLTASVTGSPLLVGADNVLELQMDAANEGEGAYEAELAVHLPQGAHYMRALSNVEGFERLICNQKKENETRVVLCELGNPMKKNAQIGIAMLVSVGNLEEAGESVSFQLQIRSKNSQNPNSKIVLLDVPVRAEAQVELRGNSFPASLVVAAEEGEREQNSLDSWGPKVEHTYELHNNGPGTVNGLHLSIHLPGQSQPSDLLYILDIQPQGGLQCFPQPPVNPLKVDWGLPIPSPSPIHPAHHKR
Sequence of Integrin alpha-IIb/beta-3 (P08514 891-1039 limits assumed): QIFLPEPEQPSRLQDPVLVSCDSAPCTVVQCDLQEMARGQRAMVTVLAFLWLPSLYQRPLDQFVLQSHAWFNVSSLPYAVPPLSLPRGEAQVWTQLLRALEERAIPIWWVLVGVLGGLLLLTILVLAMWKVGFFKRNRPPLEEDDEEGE

| SMILES | IC50 [nM] |
| --- | --- |
| CC(C)C[C@H]1C(=O)NCC(=O)N(C)[C@@H](CCCN=C(N)N)C(=O)NCC(=O)N[C@@H](CC(=O)O)C(=O)N(C)[C@H](Cc2ccccc2)C(=O)N1C | 30 |
| CC(C)C[C@@H]1NC(=O)[C@@H](Cc2ccccc2)N(C)C(=O)[C@H](CC(=O)O)NC(=O)CNC(=O)[C@H](CCCN=C(N)N)NC(=O)CNC1=O | 2000 |
| CC(C)C[C@@H]1NC(=O)[C@@H](Cc2ccccc2)NC(=O)[C@H](CC(=O)O)NC(=O)CNC(=O)[C@H](CCCNC(=N)N)NC(=O)CNC1=O (cyclo(GRGD[dF]L)) | 195 |
| CC(C)C[C@H]1C(=O)NCC(=O)N[C@@H](CCCN=C(N)N)C(=O)NCC(=O)N[C@@H](CC(=O)O)C(=O)N[C@H](Cc2ccccc2)C(=O)N1C | 560 |
| CC(C)C[C@@H]1NC(=O)[C@@H](Cc2ccccc2)NC(=O)[C@H](CC(=O)O)NC(=O)CNC(=O)[C@H](CCCN=C(N)N)N(C)C(=O)CNC1=O | 12 |

Next, values leading:

| IC50 [nM] | SMILES |
| --- | --- |
| 620 | CC(C)C[C@H]1C(=O)NCC(=O)N[C@@H](CCCN=C(N)N)C(=O)NCC(=O)N[C@@H](CC(=O)O)C(=O)N(C)[C@H](Cc2ccccc2)C(=O)N1C |
| 15 | CC(C)C[C@H]1C(=O)NCC(=O)N(C)[C@@H](CCCNC(=N)N)C(=O)NCC(=O)N[C@@H](CC(=O)O)C(=O)N[C@H](Cc2ccccc2)C(=O)N1C |
| 165 | CC(C)C[C@@H]1NC(=O)[C@@H](Cc2ccccc2)N(C)C(=O)[C@H](CC(=O)O)NC(=O)CNC(=O)[C@H](CCCNC(=N)N)N(C)C(=O)CNC1=O |

Organism: Homo sapiens
Assay: Selectivity for integrin alpha2bbeta3 receptor over integrin alphavbeta3 receptor

| SMILES | Ratio IC50 |
| --- | --- |
| CC(C)C[C@@H]1NC(=O)[C@@H](Cc2ccccc2)NC(=O)[C@H](CC(=O)O)NC(=O)CNC(=O)[C@H](CCCNC(=N)N)N(C)C(=O)CNC1=O | 64 |
| CC(C)C[C@@H]1NC(=O)[C@@H](Cc2ccccc2)NC(=O)[C@H](CC(=O)O)NC(=O)CNC(=O)[C@H](CCCNC(=N)N)NC(=O)CNC1=O (cyclo(GRGD[dF]L)) | 0.5 |

Second part, the compound after the results:

| Ratio IC50 | SMILES |
| --- | --- |
| 406 | CC(C)C[C@H]1C(=O)NCC(=O)N(C)[C@@H](CCCNC(=N)N)C(=O)NCC(=O)N[C@@H](CC(=O)O)C(=O)N(C)[C@H](Cc2ccccc2)C(=O)N1C |
| 86 | CC(C)C[C@H]1C(=O)NCC(=O)N(C)[C@@H](CCCNC(=N)N)C(=O)NCC(=O)N[C@@H](CC(=O)O)C(=O)N[C@H](Cc2ccccc2)C(=O)N1C |
| 2 | CC(C)C[C@H]1C(=O)NCC(=O)N[C@@H](CCCNC(=N)N)C(=O)NCC(=O)N[C@@H](CC(=O)O)C(=O)N(C)[C@H](Cc2ccccc2)C(=O)N1C |
| 0.2 | CC(C)C[C@H]1C(=O)NCC(=O)N[C@@H](CCCNC(=N)N)C(=O)NCC(=O)N[C@@H](CC(=O)O)C(=O)N[C@H](Cc2ccccc2)C(=O)N1C |
| 0.2 | CC(C)C[C@@H]1NC(=O)[C@@H](Cc2ccccc2)N(C)C(=O)[C@H](CC(=O)O)NC(=O)CNC(=O)[C@H](CCCNC(=N)N)NC(=O)CNC1=O |
| 16 | CC(C)C[C@@H]1NC(=O)[C@@H](Cc2ccccc2)N(C)C(=O)[C@H](CC(=O)O)NC(=O)CNC(=O)[C@H](CCCNC(=N)N)N(C)C(=O)CNC1=O |

Target: Integrin alpha-5/beta-1 (Homo sapiens, UniProt P05556+P08648)
Assay: Binding affinity to integrin alpha-5-beta-1 receptor by solid phase binding assay
Format: protein-complex assay

Sequence of Integrin alpha-5/beta-1 (P05556 21-798 limits assumed): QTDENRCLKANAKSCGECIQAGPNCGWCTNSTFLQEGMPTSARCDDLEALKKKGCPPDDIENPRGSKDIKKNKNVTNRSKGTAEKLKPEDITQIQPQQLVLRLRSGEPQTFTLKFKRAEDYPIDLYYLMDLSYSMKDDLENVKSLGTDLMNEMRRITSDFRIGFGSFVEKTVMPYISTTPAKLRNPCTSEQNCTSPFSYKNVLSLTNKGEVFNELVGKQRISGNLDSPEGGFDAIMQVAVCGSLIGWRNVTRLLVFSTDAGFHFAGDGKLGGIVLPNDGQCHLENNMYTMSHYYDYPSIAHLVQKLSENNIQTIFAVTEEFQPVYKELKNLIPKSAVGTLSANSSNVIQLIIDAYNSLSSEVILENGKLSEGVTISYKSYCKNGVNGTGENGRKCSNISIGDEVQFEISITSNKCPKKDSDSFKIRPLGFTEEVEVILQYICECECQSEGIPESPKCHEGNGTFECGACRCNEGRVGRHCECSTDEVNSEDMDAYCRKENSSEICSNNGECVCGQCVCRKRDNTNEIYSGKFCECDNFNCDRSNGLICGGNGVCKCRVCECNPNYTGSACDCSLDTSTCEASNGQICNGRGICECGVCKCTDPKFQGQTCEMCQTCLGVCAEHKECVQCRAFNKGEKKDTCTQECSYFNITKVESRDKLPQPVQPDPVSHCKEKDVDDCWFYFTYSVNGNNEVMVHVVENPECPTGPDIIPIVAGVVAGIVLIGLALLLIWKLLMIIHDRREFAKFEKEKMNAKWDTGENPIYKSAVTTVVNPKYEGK
Sequence of Integrin alpha-5/beta-1 (P08648 42-894 limits assumed): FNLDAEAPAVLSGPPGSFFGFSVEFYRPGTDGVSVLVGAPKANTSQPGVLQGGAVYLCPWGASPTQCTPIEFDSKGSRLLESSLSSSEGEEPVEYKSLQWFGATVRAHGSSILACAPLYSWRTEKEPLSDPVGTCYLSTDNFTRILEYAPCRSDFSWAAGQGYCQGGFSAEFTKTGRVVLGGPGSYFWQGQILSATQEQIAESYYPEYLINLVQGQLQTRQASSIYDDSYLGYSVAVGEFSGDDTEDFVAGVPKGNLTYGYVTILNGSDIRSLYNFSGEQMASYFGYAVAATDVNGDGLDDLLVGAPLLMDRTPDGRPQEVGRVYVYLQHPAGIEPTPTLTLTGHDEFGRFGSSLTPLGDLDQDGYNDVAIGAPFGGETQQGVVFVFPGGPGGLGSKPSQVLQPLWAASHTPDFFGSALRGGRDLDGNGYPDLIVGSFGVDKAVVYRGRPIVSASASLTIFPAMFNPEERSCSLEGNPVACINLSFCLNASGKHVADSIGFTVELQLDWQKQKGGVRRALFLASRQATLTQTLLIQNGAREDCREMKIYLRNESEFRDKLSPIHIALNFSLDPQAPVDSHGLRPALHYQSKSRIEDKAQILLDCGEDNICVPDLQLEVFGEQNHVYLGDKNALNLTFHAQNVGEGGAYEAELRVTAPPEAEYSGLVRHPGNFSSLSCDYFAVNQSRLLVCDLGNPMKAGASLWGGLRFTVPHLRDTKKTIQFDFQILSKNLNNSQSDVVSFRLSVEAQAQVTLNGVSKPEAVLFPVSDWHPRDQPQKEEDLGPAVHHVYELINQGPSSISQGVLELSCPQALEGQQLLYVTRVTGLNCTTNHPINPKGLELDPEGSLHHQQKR
Sequence of Integrin alpha-5/beta-1 (P08648 895-1049 limits assumed): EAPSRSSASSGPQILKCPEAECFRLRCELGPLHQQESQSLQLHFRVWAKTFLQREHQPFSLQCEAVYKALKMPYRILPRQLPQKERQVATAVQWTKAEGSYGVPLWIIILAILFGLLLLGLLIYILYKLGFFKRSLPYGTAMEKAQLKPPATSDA

| SMILES | IC50 [µM] |
| --- | --- |
| CC(C)C[C@H]1C(=O)NCC(=O)N(C)[C@@H](CCCN=C(N)N)C(=O)NCC(=O)N[C@@H](CC(=O)O)C(=O)N(C)[C@H](Cc2ccccc2)C(=O)N1C | > 20 |
| CC(C)C[C@@H]1NC(=O)[C@@H](Cc2ccccc2)N(C)C(=O)[C@H](CC(=O)O)NC(=O)CNC(=O)[C@H](CCCN=C(N)N)NC(=O)CNC1=O | 4.3 |
| CC(C)C[C@@H]1NC(=O)[C@@H](Cc2ccccc2)NC(=O)[C@H](CC(=O)O)NC(=O)CNC(=O)[C@H](CCCNC(=N)N)NC(=O)CNC1=O (cyclo(GRGD[dF]L)) | 0.74 |
| CC(C)C[C@H]1C(=O)NCC(=O)N[C@@H](CCCN=C(N)N)C(=O)NCC(=O)N[C@@H](CC(=O)O)C(=O)N[C@H](Cc2ccccc2)C(=O)N1C | 3.9 |
| CC(C)C[C@@H]1NC(=O)[C@@H](Cc2ccccc2)NC(=O)[C@H](CC(=O)O)NC(=O)CNC(=O)[C@H](CCCN=C(N)N)N(C)C(=O)CNC1=O | 1.2 |

Second part, the compound after the results:

| IC50 [µM] | SMILES |
| --- | --- |
| > 20 | CC(C)C[C@H]1C(=O)NCC(=O)N[C@@H](CCCN=C(N)N)C(=O)NCC(=O)N[C@@H](CC(=O)O)C(=O)N(C)[C@H](Cc2ccccc2)C(=O)N1C |
| 20 | CC(C)C[C@H]1C(=O)NCC(=O)N(C)[C@@H](CCCNC(=N)N)C(=O)NCC(=O)N[C@@H](CC(=O)O)C(=O)N[C@H](Cc2ccccc2)C(=O)N1C |
| > 20 | CC(C)C[C@@H]1NC(=O)[C@@H](Cc2ccccc2)N(C)C(=O)[C@H](CC(=O)O)NC(=O)CNC(=O)[C@H](CCCNC(=N)N)N(C)C(=O)CNC1=O |

Tested on: not listed separately
Assay: Permeability across human Caco-2 cell monolayer
Format: ADME, cell-based

| SMILES | Papp [×10⁻⁶ cm/s] |
| --- | --- |
| CC(C)C[C@H]1C(=O)NCC(=O)N(C)[C@@H](CCCN=C(N)N)C(=O)NCC(=O)N[C@@H](CC(=O)O)C(=O)N(C)[C@H](Cc2ccccc2)C(=O)N1C | 0.03 |
| CC(C)C[C@@H]1NC(=O)[C@@H](Cc2ccccc2)N(C)C(=O)[C@H](CC(=O)O)NC(=O)CNC(=O)[C@H](CCCN=C(N)N)NC(=O)CNC1=O | 0.03 |
| CC(C)C[C@@H]1NC(=O)[C@@H](Cc2ccccc2)NC(=O)[C@H](CC(=O)O)NC(=O)CNC(=O)[C@H](CCCNC(=N)N)NC(=O)CNC1=O (cyclo(GRGD[dF]L)) | 0.03 |
| CC(C)C[C@H]1C(=O)NCC(=O)N[C@@H](CCCN=C(N)N)C(=O)NCC(=O)N[C@@H](CC(=O)O)C(=O)N[C@H](Cc2ccccc2)C(=O)N1C | 0.03 |
| OC[C@@H](O)[C@@H](O)[C@H](O)[C@H](O)CO [MANNITOL] | 0.9 |
| CC(C)C[C@@H]1NC(=O)[C@@H](Cc2ccccc2)NC(=O)[C@H](CC(=O)O)NC(=O)CNC(=O)[C@H](CCCN=C(N)N)N(C)C(=O)CNC1=O | 0.03 |

Further lines, results first:

| Papp [×10⁻⁶ cm/s] | SMILES |
| --- | --- |
| 0.03 | CC(C)C[C@H]1C(=O)NCC(=O)N[C@@H](CCCN=C(N)N)C(=O)NCC(=O)N[C@@H](CC(=O)O)C(=O)N(C)[C@H](Cc2ccccc2)C(=O)N1C |
| 0.03 | CC(C)C[C@H]1C(=O)NCC(=O)N(C)[C@@H](CCCNC(=N)N)C(=O)NCC(=O)N[C@@H](CC(=O)O)C(=O)N[C@H](Cc2ccccc2)C(=O)N1C |
| 0.03 | CC(C)C[C@@H]1NC(=O)[C@@H](Cc2ccccc2)N(C)C(=O)[C@H](CC(=O)O)NC(=O)CNC(=O)[C@H](CCCNC(=N)N)N(C)C(=O)CNC1=O |
